# Measurements: US6518243B1, “Desleucyl glycopeptide antibiotics and methods of making same” (Trustees of Princeton University, priority 1999, dated 2003)
# Tests used:
# S. Aureus ATCC 33591 = experiment: MIC determination in BHI media, OD600; type: cell-based; settings: BHI + 0.1% casamino acids, 18 hours at 37° C., ≧90% OD600 inhibition
# Summary of the method: (§1)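 Starting cell density was near 5×10^5 CFU/ml, taken from exponentially growing cultures. Incubation with the DMSO dilution series ran 18 hours at 37° C.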
# E. faecium CL 4931 = experiment: MIC determination in BHI media, OD600; type: cell-based; settings: BHI + 0.1% casamino acids, 18 hours at 37° C., ≧90% OD600 inhibition
# Summary of the method: as §1
# E. faecium ATCC 49624 = experiment: MIC determination in BHI media, OD600; type: cell-based; settings: BHI + 0.1% casamino acids, 18 hours at 37° C., ≧90% OD600 inhibition
# Summary of the method: as §1
# E. Faecalis CL 4877 = experiment: MIC determination in BHI media, OD600; type: cell-based; settings: BHI + 0.1% casamino acids, 18 hours at 37° C., ≧90% OD600 inhibition
# Summary of the method: as §1
# S aureus ATCC 29213 = experiment: MIC determination in BHI media, OD600; type: cell-based; settings: BHI + 0.1% casamino acids, 18 hours at 37° C., ≧90% OD600 inhibition
# Summary of the method: as §1
# E. faceium (ATCC 49624) = experiment: Zone of inhibition screen, 96 well agar array format;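 further: score 3 means fourfold and score 4 sixteenfold the reference zone size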; type: cell-based, E. faecium; settings: zone of inhibition relative to 1 mg/ml stock solution of p-chlorobiphenylvancomycin
# Summary of the method: (§2)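 Panel screening of every compound against several bacterial strains, among them E. faecium ATCC 49624, was done in a 96-well agar array.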
# [1] = test system: E. faecalis (ATCC 292121); experiment: as above; type: cell-based; settings: zone of inhibition relative to 1 mg/ml stock solution of p-chlorobiphenylvancomycin
# Protocol: The antibacterial activity of each of the compounds against the bacterial strains E. faceium (ATCC 49624), S. epidermidis (ATCC 12228), S. aureus (ATCC 29213), E. faecalis (CL 4877) and E. faecalis (ATCC 292121) was tested. Each of the compounds was screened in a 96 will agar array format.
# E. faecalis (CL 4877) = experiment: as above; type: cell-based; parameters: scale not given here; settings: zone of inhibition relative to 1 mg/ml stock solution of p-chlorobiphenylvancomycin
# Summary of the method: as §2
# E. faecalis ATCC 29212 = experiment: MIC determination in BHI media, OD600; type: cell-based; settings: BHI + 0.1% casamino acids, 18 hours at 37° C., ≧90% OD600 inhibition
# Summary of the method: as §1
# S. aureus (ATCC 29213) = experiment: Zone of inhibition screen, 96 well agar array format; type: cell-based; parameters: scale not given here; settings: zone of inhibition relative to 1 mg/ml stock solution of p-chlorobiphenylvancomycin
# Summary of the method: as §2
# [2] = test system: S. epidermidis (ATCC 12228); experiment: as above; type: cell-based; parameters: scale not given here; settings: zone of inhibition relative to 1 mg/ml stock solution of p-chlorobiphenylvancomycin
# Summary of the method: as §2
# 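Wherever zone score, E. faecalis ATCC 29212 is given: score 3 means fourfold and score 4 sixteenfold the reference zone size.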
Structure (SMILES),MIC S. aureus ATCC 33591 (S. Aureus ATCC 33591),MIC E. faecium CL 4931 (E. faecium CL 4931),MIC E. faecium ATCC 49624 (E. faecium ATCC 49624),MIC E. faecalis CL 4877 (E. Faecalis CL 4877),MIC S. aureus ATCC 29213 (S aureus ATCC 29213),"zone score, E. faecium ATCC 49624 (E. faceium (ATCC 49624))","zone score, E. faecalis ATCC 29212 [1]","zone score, E. faecalis CL 4877 (E. faecalis (CL 4877))",MIC E. faecalis ATCC 29212 (E. faecalis ATCC 29212),"zone score, S. aureus ATCC 29213 (S. aureus (ATCC 29213))","zone score, S. epidermidis ATCC 12228 [2]"
C[C@H](N)C(=O)N[C@H]1C(=O)N[C@@H](CC(N)=O)C(=O)N[C@H]2C(=O)N[C@H]3C(=O)N[C@H](C(=O)N[C@@H](C(=O)O)c4cc(O)cc(O)c4-c4cc3ccc4O)[C@H](O)c3ccc(c(Cl)c3)Oc3cc2cc(c3O[C@@H]2O[C@H](CO)[C@@H](O)[C@H](O)[C@H]2O[C@@H]2C[C@@](C)(NCc3ccc(-c4ccc(Cl)cc4)cc3)[C@@H](O)[C@@H](C)O2)Oc2ccc(cc2Cl)[C@H]1O [Compound 1],0.78 µg/mL,25 µg/mL,0.78 µg/mL,25 µg/mL,0.78 µg/mL,2,–,–,–,–,–
CNCC(=O)N[C@H]1C(=O)N[C@@H](CC(N)=O)C(=O)N[C@H]2C(=O)N[C@H]3C(=O)N[C@H](C(=O)N[C@@H](C(=O)O)c4cc(O)cc(O)c4-c4cc3ccc4O)[C@H](O)c3ccc(c(Cl)c3)Oc3cc2cc(c3O[C@@H]2O[C@H](CO)[C@@H](O)[C@H](O)[C@H]2O[C@@H]2C[C@@](C)(NCc3ccc(-c4ccc(Cl)cc4)cc3)[C@@H](O)[C@@H](C)O2)Oc2ccc(cc2Cl)[C@H]1O [Compound 8],–,–,–,–,–,–,2,2,–,–,–
C[C@H]1O[C@H](O[C@H]2[C@H](Oc3c4cc5cc3Oc3ccc(cc3Cl)[C@@H](O)[C@@H](NC(=O)[C@H](N)COC(C)(C)C)C(=O)N[C@@H](CC(N)=O)C(=O)N[C@H]5C(=O)N[C@H]3C(=O)N[C@H](C(=O)N[C@@H](C(=O)O)c5cc(O)cc(O)c5-c5cc3ccc5O)[C@H](O)c3ccc(c(Cl)c3)O4)O[C@H](CO)[C@@H](O)[C@@H]2O)C[C@@](C)(NCc2ccc(-c3ccc(Cl)cc3)cc2)[C@H]1O [Compound 17],0.12 µg/mL,–,0.062 µg/mL,3.91 µg/mL,0.062 µg/mL,–,–,–,0.25 µg/mL,–,–
C[C@H](OC(C)(C)C)[C@@H](N)C(=O)N[C@H]1C(=O)N[C@@H](CC(N)=O)C(=O)N[C@H]2C(=O)N[C@H]3C(=O)N[C@H](C(=O)N[C@@H](C(=O)O)c4cc(O)cc(O)c4-c4cc3ccc4O)[C@H](O)c3ccc(c(Cl)c3)Oc3cc2cc(c3O[C@@H]2O[C@H](CO)[C@@H](O)[C@H](O)[C@H]2O[C@@H]2C[C@@](C)(NCc3ccc(-c4ccc(Cl)cc4)cc3)[C@@H](O)[C@@H](C)O2)Oc2ccc(cc2Cl)[C@H]1O [Compound 18],0.78 µg/mL,25 µg/mL,0.25 µg/mL,25 µg/mL,0.78 µg/mL,2,–,–,–,2,–
C[C@H]1O[C@H](O[C@H]2[C@H](Oc3c4cc5cc3Oc3ccc(cc3Cl)[C@@H](O)[C@@H](NC(=O)[C@H](N)Cc3c[nH]c6ccccc36)C(=O)N[C@@H](CC(N)=O)C(=O)N[C@H]5C(=O)N[C@H]3C(=O)N[C@H](C(=O)N[C@@H](C(=O)O)c5cc(O)cc(O)c5-c5cc3ccc5O)[C@H](O)c3ccc(c(Cl)c3)O4)O[C@H](CO)[C@@H](O)[C@@H]2O)C[C@@](C)(NCc2ccc(-c3ccc(Cl)cc3)cc2)[C@H]1O [Compound 25],0.25 µg/mL,–,0.25 µg/mL,–,0.25 µg/mL,2,2,2,0.39 µg/mL,2,–
C[C@H]1O[C@H](O[C@H]2[C@H](Oc3c4cc5cc3Oc3ccc(cc3Cl)[C@@H](O)[C@@H](NC(=O)CN)C(=O)N[C@@H](CC(N)=O)C(=O)N[C@H]5C(=O)N[C@H]3C(=O)N[C@H](C(=O)N[C@@H](C(=O)O)c5cc(O)cc(O)c5-c5cc3ccc5O)[C@H](O)c3ccc(c(Cl)c3)O4)O[C@H](CO)[C@@H](O)[C@@H]2O)C[C@@](C)(NCc2ccc(-c3ccc(Cl)cc3)cc2)[C@H]1O [Compound 28],–,–,–,–,–,2,2,2,–,–,–
CC1OC(OC2C(Oc3c4cc5cc3Oc3ccc(cc3Cl)C(O)C3NC(=O)C(NC(=O)C5NC(=O)C(CC(N)=O)NC(=O)C(NC(=O)C(N)CCC(N)=O)C(O)c5ccc(c(Cl)c5)O4)c4ccc(O)c(c4)-c4c(O)cc(O)cc4C(C(=O)O)NC3=O)OC(CO)C(O)C2O)CC(C)(NCc2ccc(-c3ccc(Cl)cc3)cc2)C1O (stereo not shown) [Compound 57],–,–,–,–,–,2,2,–,–,–,–
CC(O)C(N)C(=O)NC1C(=O)NC(CC(N)=O)C(=O)NC2C(=O)NC3C(=O)NC(C(=O)NC(C(=O)O)c4cc(O)cc(O)c4-c4cc3ccc4O)C(O)c3ccc(c(Cl)c3)Oc3cc2cc(c3OC2OC(CO)C(O)C(O)C2OC2CC(C)(NCc3ccc(-c4ccc(Cl)cc4)cc3)C(O)C(C)O2)Oc2ccc(cc2Cl)C1O (stereo not shown) [Compound 64],0.78 µg/mL,25 µg/mL,0.39 µg/mL,–,0.78 µg/mL,–,2,2,–,–,–
CC1OC(OC2C(Oc3c4cc5cc3Oc3ccc(cc3Cl)C(O)C3NC(=O)C(NC(=O)C5NC(=O)C(CC(N)=O)NC(=O)C(NC(=O)C(N)CCCCNC(=O)CCCCC5SCC6NC(=O)NC65)C(O)c5ccc(c(Cl)c5)O4)c4ccc(O)c(c4)-c4c(O)cc(O)cc4C(C(=O)O)NC3=O)OC(CO)C(O)C2O)CC(C)(NCc2ccc(-c3ccc(Cl)cc3)cc2)C1O (stereo not shown) [Compound 75],–,25 µg/mL,0.39 µg/mL,25 µg/mL,–,2,2,2,–,–,2
CC1OC(OC2C(Oc3c4cc5cc3Oc3ccc(cc3Cl)C(O)C3NC(=O)C(NC(=O)C5NC(=O)C(CC(N)=O)NC(=O)C(NC(=O)C(N)CC[S+](C)[O-])C(O)c5ccc(c(Cl)c5)O4)c4ccc(O)c(c4)-c4c(O)cc(O)cc4C(C(=O)O)NC3=O)OC(CO)C(O)C2O)CC(C)(NCc2ccc(-c3ccc(Cl)cc3)cc2)C1O (stereo not shown) [Compound 81],–,25 µg/mL,0.78 µg/mL,25 µg/mL,0.78 µg/mL,2,–,–,–,–,2
"CC1OC(OC2C(Oc3c4cc5cc3Oc3ccc(cc3Cl)C(O)C3NC(=O)C(NC(=O)C5NC(=O)C(CC(N)=O)NC(=O)C(N)C(O)c5ccc(c(Cl)c5)O4)c4ccc(O)c(c4)-c4c(O)cc(O)cc4C(C(=O)O)NC3=O)OC(CO)C(O)C2O)CC(C)(NCc2ccc(-c3ccc(Cl)cc3)cc2)C1O (stereo not shown) [Compound 522, Des-Lecyl Vancomycin, reference compound]",> 25 µg/mL,> 25 µg/mL,> 25 µg/mL,> 25 µg/mL,> 25 µg/mL,–,–,–,> 25 µg/mL,–,–
C[C@H]1O[C@H](O[C@H]2[C@H](Oc3c4cc5cc3Oc3ccc(cc3Cl)[C@@H](O)[C@@H](NC(=O)[C@H](N)Cc3cccnc3)C(=O)N[C@@H](CC(N)=O)C(=O)N[C@H]5C(=O)N[C@H]3C(=O)N[C@H](C(=O)N[C@@H](C(=O)O)c5cc(O)cc(O)c5-c5cc3ccc5O)[C@H](O)c3ccc(c(Cl)c3)O4)O[C@H](CO)[C@@H](O)[C@@H]2O)C[C@@](C)(NCc2ccc(-c3ccc(Cl)cc3)cc2)[C@H]1O [Compound 556],0.39 µg/mL,25 µg/mL,0.39 µg/mL,25 µg/mL,0.78 µg/mL,–,–,–,0.78 µg/mL,–,–
